Data from patent US6498181B1, “Synergistic tumorcidal response induced by histamine” (Maxim Pharmaceuticals, priority 1999, dated 2002).
Where two headings read alike, the source gives them in different places.

Legend:
[1] = tested on: follicular non-Hodgkins lymphoma; settings: cited from earlier work
[2] = Method: Five patients suffering from acute myleogenous leukemia (AML) in remission received treatment with histamine dihydrochloride diluted in sterile sodium chloride. Histamine was administered morning and night at separate subcutaneous injection sites over a period of 21 consecutive days. The histamine was given as subcutaneous injections using 1 ml syringes containing […] of histamine per ml. The histamine treatment was given twice daily (morning and night) at a dosage of 0.4 to 0.7 mg histamine per injection (i.e., a daily total dose of histamine of 0.8 to 1.4 mg per day).
Peripheral blood venous samples were drawn in 10 ml heparinized test tubes before the onset of treatment and weekly thereafter. The samples were drawn at least 8 hours after the last injections of histamine. The concentration of histamine in the whole blood samples was analyzed by the use of a double antibody radioimmunoassay kit obtained from Bionerica, Inc., Newport Beach, Calif. 92663 (catalog number 1051). The manufacturer's instructions provided with the kit, dated June, 1989, were followed. Blood histamine levels were measured at the indicated times.

[3] = Effect of duration of histamine administration on efficacy and side effects; settings: administered over less than 1 to 3 minutes; anaphalaxis, heart failure, broncospasm, flushing, headache etc.
prostate tumor [4] = settings: histamine s.c. 0.5-2.0 mg per day one week before external beam radiation (60-70 Gy), continued after
Method: The tumorcidal response is evaluated by determining the level of PSA antigen in the patient over time according to conventional methods.

prostate tumor [5] = settings: histamine s.c. 0.5-2.0 mg per day one week before surgery, blood histamine kept at at least about 0.2 μM after
Method: Accordingly, a pharmaceutically acceptable form of histamine in a sterile carrier solution is injected subcutaneously into a patient suffering from prostate cancer for one week (0.5-2.0 mg per day) prior to surgery.
Once the tumor is removed, circulating levels of blood histamine are maintained at at least about 0.2 μM until a complete response is observed. The tumorcidal response is evaluated by determining the level of PSA antigen in the patient over time according to conventional methods.

melanoma = settings: histamine s.c. 0.5-1.0 mg per injection 1-2 times per day with vaccine of killed mixture of three melanomic cell lines
Text: (Quak and van Dongen, Eur. Arch. Otorhinolaryngol 251:1-5(1994)).

breast cancer = settings: histamine s.c. 0.5-1.0 mg per injection 1-2 times per day with humanized 131I labeled p185^HER-2 antibody
Method: Accordingly, a pharmaceutically acceptable form of histamine in a sterile carrier solution is injected subcutaneously into the patient for one week (0.5-1.0 mg per injection 1-2 times per day) prior to antibody therapy.
The tumorcidal response is evaluated by determining the level of p185^HER-2 receptor in the patient over time according to conventional methods. (Quak and van Dongen, Eur. Arch. Otorhinolaryngol 251:1-5(1994)).

[6] = tested on: human SK-N-SH neuroblastoma xenografts; settings: histamine 0.5 mg per day tail vein with 10 μCi 131I labeled BW575/9 mAb, versus BW575/9 by itself

Row | Compound | treatment outcome in clinical trials [1] | persistence of circulating blood histamine levels ([2]; even after histamine administration was discontinued) | circulating blood histamine concentration following histamine administration ([2]; five AML patients in remission, s.c. 0.4 to 0.7 mg per injection twice daily, 21 days, samples at least 8 hours after last injection, less than 0.2 μM at start) | side effects on rapid administration [3] | tumorcidal response (PSA antigen level over time) (prostate tumor [4]) | tumorcidal response (PSA antigen level over time) (prostate tumor [5]) | tumorcidal response (presence of melanoma over time) (melanoma) | tumorcidal response (p185^HER-2 receptor level over time) (breast cancer) | tumorcidal response [6]
1 | ^131I labeled anti-B1 (Bexxar) mAb: 131I radiolabeled mAb raised to the CD-20 antigens expressed on the surface of mature B-cells | successful in treating follicular non-Hodgkins lymphoma | – | – | – | – | – | – | – | –
2 | NCCc1c[nH]cn1 [histamine] | – | remained elevated for sustained periods of time | at least 0.2 μM | more pronounced and serious sides effects | synergistic tumorcidal response is observed | synergistic tumorcidal response is observed | synergistic tumorcidal response is observed | synergistic tumorcidal response is observed | greater tumorcidal response
